Results taken from patent publication US20050142531A1, “Peptidically buffered formulations for electrotransport applications and methods of making” (priority 2003, published 2005).
Converted amounts (≈) assume the structure as drawn. Structures can show the parent of a compound that is named as a salt. Peptide text beside a SMILES is read from it.

Assays:
[1] = cited from earlier work
[2] = Conductivities and solubilities of selected multipeptides at their pI; format: physicochemical; conditions: for pI: Table 1; for Solubility: at pI
Text: Table 1 lists conductivities and solubilities of selected multipeptides useful in the present invention, at their pI. The pH buffering capacity of the peptidic buffers of the present invention can be explained by using Gly-His at pH 7.5 as an example (the pI of Gly-His is 7.55). At this pH, the net charge of the molecule is essentially zero. At the pI, three species coexist. The bulk of the molecule (70%) consists of the neutral species that bears two internal charges, one positive and one negative resulting in a net charge of zero. […] Although there are small percentages of species presenting a net positive or negative charge in solution, there is minimal ionic transport of these charged species due to charge equilibrium between the three species (i.e., a positive charge migrating in the electric field will revert almost instantly to its neutral form and lose momentum or to its negative form and migrate backward). Thus, there is little if any ionic transport of the charged peptides into the systemic circulation of the patient. Due to the same principle of charge equilibrium, any depletion of the charged molecules will be compensated immediately by dissociation of the neutral form to its charged species thereby providing a reservoir insuring long term pH stability. In addition, if loss of the molecule occurs by electroosmosis of the neutral species, this will not result in any pH changes.

[3] = pKa, pI and % salt of peptidic buffers; format: physicochemical

Row | SMILES | pKa (first value) ([1]; first listed) | pKa (second value) ([1]; second listed) | pKa (third value) ([1]; third listed) | pI [2] | Solubility [2] [mM] | pka A (acidic pKa) ([3]; Table 2, first acidic pKa) | pka B (basic pKa) ([3]; Table 2, first basic pKa) | pka A (acidic pKa) ([3]; Table 2, second acidic pKa) | pka B (basic pKa) ([3]; Table 2, second basic pKa) | pKa (amine) ([1]; amine) | pKa (carboxylic) ([1]; carboxylic) | pKa (enolic OH) ([1]; enolic OH)
1 | CO/N=C(\C(=O)N[C@@H]1C(=O)N2C(C(=O)O)=C(CSc3nc(C)c(CC(=O)O)s3)CS[C@H]12)c1csc(N)n1 [Cefodizime disodium salt] | 2.85 | 3.37 | 4.18 | – | – | – | – | – | – | – | – | –
2 | NCCCC[C@H](NC(=O)[C@@H](N)CCC(=O)O)C(=O)O [Glu-Lys] (H-Glu-Lys-OH; N-terminus and C-terminus assumed) | – | – | – | 6.00 | 1000 (≈ 275 mg/mL) | 2.85 | 7.94 | 4.01 | 11.07 | – | – | –
3 | NCC(=O)N[C@@H](Cc1c[nH]cn1)C(=O)O [Gly-His] (H-Gly-His-OH; N-terminus and C-terminus assumed) | – | – | – | 7.55 | 1000 (≈ 212 mg/mL) | 2.42 | 6.71 | – | 8.39 | – | – | –
4 | C[C@H](NC(=O)[C@@H](N)Cc1c[nH]cn1)C(=O)O [His-Ala] (H-His-Ala-OH; N-terminus and C-terminus assumed) | – | – | – | 6.95 | 500 (≈ 113 mg/mL) | 2.48 | 6.10 | – | 7.80 | – | – | –
5 | N[C@@H](Cc1c[nH]cn1)C(=O)N[C@@H](CC(=O)O)C(=O)O [His-Asp] (H-His-Asp-OH; N-terminus and C-terminus assumed) | – | – | – | 5.22 | 50 (≈ 13.5 mg/mL) | 2.28 | 6.45 | 3.99 | 8.19 | – | – | –
6 | N[C@@H](Cc1c[nH]cn1)C(=O)N[C@@H](CCC(=O)O)C(=O)O [His-Glu] (H-His-Glu-OH; N-terminus and C-terminus assumed) | – | – | – | 5.20 | 400 (≈ 114 mg/mL) | 2.30 | 6.32 | 4.19 | 8.07 | – | – | –
7 | N[C@@H](Cc1c[nH]cn1)C(=O)NCC(=O)O [His-Gly] (H-His-Gly-OH; N-terminus and C-terminus assumed) | – | – | – | 6.90 | 1000 (≈ 212 mg/mL) | 2.41 | 5.90 | – | 7.91 | – | – | –
8 | NCCCC[C@H](N)C(=O)N[C@@H](CC(=O)O)C(=O)O [Lys-Asp] (H-Lys-Asp-OH; N-terminus and C-terminus assumed) | – | – | – | 6.08 | 1000 (≈ 261 mg/mL) | 2.64 | 8.05 | 4.10 | 11.20 | – | – | –
9 | NCCCC[C@H](N)C(=O)N[C@@H](CCC(=O)O)C(=O)O [Lys-Glu] (H-Lys-Glu-OH; N-terminus and C-terminus assumed) | – | – | – | 6.06 | 500 (≈ 138 mg/mL) | 2.74 | 7.92 | 4.18 | 11.12 | – | – | –
10 | O=C(O)[C@H](Cc1c[nH]cn1)NC(=O)[C@@H]1CCCN1 [Pro-His] | – | – | – | – | – | 2.42 | 6.71 | – | 9.10 | – | – | –
11 | N[C@@H](CO)C(=O)N[C@@H](Cc1c[nH]cn1)C(=O)O [Ser-His] (H-Ser-His-OH; N-terminus and C-terminus assumed) | – | – | – | – | – | 2.42 | 6.71 | – | 7.70 | – | – | –
12 | C[C@@H](O)[C@H](N)C(=O)N[C@@H](Cc1c[nH]cn1)C(=O)O [Thr-His] (H-Thr-His-OH; N-terminus and C-terminus assumed) | – | – | – | – | – | 2.42 | 6.71 | – | 7.60 | – | – | –
13 | N[C@@H](Cc1c[nH]c2ccccc12)C(=O)N[C@@H](Cc1c[nH]cn1)C(=O)O [Trp-His] (H-Trp-His-OH; N-terminus and C-terminus assumed) | – | – | – | – | – | 2.42 | 6.71 | – | 7.90 | – | – | –
14 | N=C(N)NCCC[C@H](NC(=O)[C@@H](N)Cc1ccc(O)cc1)C(=O)O [Tyr-Arg] | – | – | – | – | – | 2.64 | 7.39 | 9.36 | 11.62 | – | – | –
15 | N[C@@H](Cc1ccc(O)cc1)C(=O)N[C@@H](Cc1c[nH]cn1)C(=O)O [Tyr-His] (H-Tyr-His-OH; N-terminus and C-terminus assumed) | – | – | – | – | – | 2.42 | 6.71 | 9.90 | 7.60 | – | – | –
16 | CC(C)[C@H](N)C(=O)N[C@@H](Cc1c[nH]cn1)C(=O)O [Val-His] (H-Val-His-OH; N-terminus and C-terminus assumed) | – | – | – | 7.38 | 200 (≈ 50.9 mg/mL) | 3.09 | 6.83 | – | 7.94 | – | – | –
17 | CO/N=C(\C(=O)N[C@@H]1C(=O)N2C(C(=O)O)=C(CSc3nc(=O)c(=O)[nH]n3C)CS[C@H]12)c1csc(N)n1 [ceftriaxone] | – | – | – | – | – | – | – | – | – | 3.2 | 3 | 4.1
